Data: publication PMC9841525, “Chemical Blockage of the Mitochondrial Rhomboid Protease PARL by Novel Ketoamide Inhibitors Reveals Its Role in PINK1/Parkin-Dependent Mitophagy” (Journal of Medicinal Chemistry, 2022)
*1 amine or outer side, *2 acyl side, *3 side chain or, on linkers, in order; H or OH if unused. Where a SMILES comes first, the peptide text is derived from it. [ ]: non-standard residue; d: D form. The star is where a group is joined. NH(4-phenylbutyl) = c1ccc(CCCCN*)cc1; X1 = C[C@H](N[*:1])C(=O)C(=O)[*:2]

Key:
[1] = test system: Parkin; assay: Parkin recruitment to mitochondria and mitochondrial morphology, fluorescence microscopy; type: cell-based, human; details: HEK293 T-REx PINK1 cells, 3 h; 5 μM compound 5, CCCP or Antimycin A, vs DMSO
Experimental: (§1) Inducible stable Flp-In HEK293 T-REx cells expressing PINK1 were described previously.[33] HEK293 T-REx PINK1 and HEK293T cells were grown in DMEM (Gibco) supplemented with 10% (v/v) fetal bovine serum (ThermoFisher), 1% (v/v) GlutaMAX (Gibco), 1% (v/v) sodium pyruvate (Gibco), 125 μg/mL hygromycin (Invitrogen), and 10 μg/mL blasticidin (Gibco) or DMEM supplemented with 10% (v/v) fetal bovine serum, respectively, at 37 °C in 5% (v/v) CO2. For microscopy, cells were seeded on poly-L-lysine (Sigma)-coated slides. Transient plasmid transfections were performed using 25 kDa linear polyethylenimine (Polysciences). Plasmid (100 ng) encoding HA-Parkin-IRES-GFP, mito-mCherry or Parkin-mEGFP, or 500 ng plasmid encoding PGAM5-FLAG were used per 6-well. Total transfected DNA was 2 μg/well. For siRNA transfection, 2 × 10^5 cells were seeded per 6-well and on the next day transfected with 20 nM siRNA-oligonucleotide using lipofectamine RNAiMAX (ThermoFisher). Cells were analyzed 27 h post-transfection or five days post-siRNA-transfection. HEK293 T-REx PINK1 cells were induced with 0.3 μg/mL doxycycline for 24 h before further processing. Hoechst staining (1 μg/mL) was done immediately before adding treatment to the cells. Treatments were administered for the indicated times before processing; CCCP (Sigma) was always used as 10 μM for 3 h and Antimycin A (Sigma) as 30 μM for 3 h.
For fixation, cells were incubated for 15 min with 4% formaldehyde (16% formaldehyde diluted in PBS, Thermo Scientific) and washed in PBS. The cover glasses were mounted with Fluoromount-G (Southern Biotech) on microscope slides. […] Parkin recruitment events to the mitochondria were counted by hand throughout each z-stack and cell. […] JC-1 images were handled as summed intensity z-stack projections, as well as subjected to flatfield correction and subtraction of background before measuring the fluorescence levels normalized to the number of cell nuclei. The fluorescence intensity ratio between the red and green signal was calculated and compared to DMSO as a ratio of 1. Data were evaluated using Excel and GraphPad Prism 6.

[2] = test system: PINK1; assay: PINK1 processing and stabilization, endogenous PINK1, sodium carbonate fractionation and immunoblot; type: cell-based, human; details: HEK293T cells, 5 μM, 8 h
Experimental: as §1, with “[…] For quantification, ImageJ” for “Hoechst staining (1 μg/mL)”, “used (http://rsb.info.nih.gov/ij/). Immunoblots shown are representative of at least three independent experiments and” for “done immediately before adding treatment to the cells. Treatments”, “evaluated using Excel” for “administered for the indicated times before processing; CCCP (Sigma) was always used as 10 μM for 3 h”, “GraphPad Prism 9 (GraphPad Software, Inc.).” for “Antimycin A (Sigma) as 30 μM for 3 h.”

Compound: CC(=O)N[C@@H](C)C(=O)N[C@H](C(=O)N[C@@H](Cc1ccccc1)C(=O)N[C@@H](CC(C)C)C(=O)N[C@@H](C)C(=O)C(=O)NCCCCc1ccccc1)C(C)C [compound 5] (Ac-AVFL[X1]-{NH(4-phenylbutyl)})
- Recruitment of Parkin-mEGFP to mitochondria (microscopy) [1]: significant recruitment of mEGFP-tagged Parkin to the mitochondria
- Effect on endogenous PINK1 cleavage and stabilization [2]: endogenous PINK1 remains largely uncleaved and is stabilized in its 66 kDa form
- Effect on endogenous PINK1 cleavage and stabilization ([2]; listed as Compound 5): inhibits PARL-catalyzed PINK1 cleavage under endogenous expression levels
